Data reported in patent publication US8835415B2, “Standardized composition, method of manufacture and use in the resolution of RNA virus infection” (priority 2009, dated 2014).

Test system: H1N1 virus, Resistant strain (6706)
Assay: microbe, parasite or virus in culture
Format: cell-based
Conditions: Influenza A virus, H1N1, MDCK

CCOC(=O)C1=C[C@@H](OC(CC)CC)[C@H](NC(C)=O)[C@@H](N)C1 [Tamiflu, Oseltamivir]
EC50: > 5 µM
